Measurements as given in patent US11976116B2, “Salvage chimeric antigen receptor systems” (2seventy bio, Inc., priority 2016, dated 2024).

Key:
K562-BCMA positive cells [1] = test: Cytotoxicity assay, CAR T cells co-cultured with K562-BCMA positive and negative cells; type: cell-based; conditions: 20 nM AP21967, 24 hours, E:T 5:1
Protocol: (§1) Human PBMCs (1×10^6 cells/mL) were activated with soluble anti-CD3 and anti-CD28 antibodies (50 ng/ml) on day 0. After 24 hr incubation, 1×10^6 cells were transduced with lentivirus encoding either an anti-BCMA CAR or an anti-BCMA salvage CAR. The transduced cells were washed and resuspended at 0.3×10^6 cells/mL growth medium on day 3. The CAR T cells were cultured for 7 days with IL-2 (250 IU/mL) containing medium changed every other day.
The cytotoxic potential of anti-BCMA CAR T cells and anti-BCMA salvage CAR T cells was analyzed by co-culturing day 10 CAR T cells (E, effector cells) with a 50:50 mixture of K562-BCMA positive cells (GFP positive) (T, target cells) and K562-BCMA negative cells (BFP positive) for 24 hours at an E:T ratio of 5:1. Cells were co-cultured with or without 20 nM AP21967 (a non-immunosuppressive rapamycin analog). The ratio of K562-BCMA positive cells to K562-BCMA negative cells is a direct readout of CAR T cell cytotoxicity.

[2] = tested on: BCMA negative, CD19 positive Nalm-6 cells; test: Cytotoxicity assay, anti-BCMA salvage CAR T cells co-cultured with Nalm-6-CD19 positive and K562-CD19 negative cells; type: cell-based; conditions: 250 ng pre-loaded receptor, with or without 100 nM AP21967, 24 hr, E:T 2:1
Excerpt: 293 T cells were transduced with lentivirus encoding the dimerizable anti-CD19 salvage receptor to generate a stable source of secreted anti-CD19-scFv-FKBP12 proteins (FIG. 1, right panel). Supernatant containing soluble anti-CD19 salvage receptor polypeptides (anti-CD19 scFV FKBP12) was collected from stable 293T-710 cells and filtered.
The anti-CD19 salvage receptor forms a heterodimer with the anti-BCMA salvage CAR in the presence of AP21967 (FIG. 3A). The cytotoxic potential of anti-BCMA salvage CAR T cells (E) against BCMA negative, CD19 positive Nalm-6 cells (T) was analyzed by co-culturing CAR T cells with a 50:50 mixture of Nalm-6-CD19 positive cells (GFP positive) and K562-CD19 negative cells (BFP positive) for 24 hours at an E:T ratio of 2:1. The co-cultures were treated with vehicle or 100 nM AP21967 and with different volumes of 293T-710 cell supernatant (0 μl, 10 μl, or 30 μl). […] FIG. 3B.
T cells were transduced with lentiviral vectors encoding an anti-BCMA CAR or anti-BCMA salvage CAR. The CART cells were co-cultured with a 50:50 mixture of CD19 positive Nalm-6 cells expressing GFP and CD19 negative K562 cells expressing BFP, in the presence or absence of 250 ng pre-loaded dimerizable anti-CD19 salvage receptor, with or without 100 nM AP21967, for 24 hr, at a 2:1 E:T ratio. […] FIG. 5. AP21967 was not required to trigger the CD19 specific cytotoxicity. […]

K562-BCMA positive cells [3] = test: IFNγ release assay (ELISA), CAR T cells co-cultured with K562-BCMA positive cells; type: cell-based; conditions: 24 hours, E:T 1:1
Protocol: as §1
Antigen dependent cytokine secretion was analyzed by co-culturing day 10 CAR T cells with K562-BCMA positive cells for 24 hours at an E:T ratio of 1:1 (with or without AP21967). Culture supernatants were collected and IFNγ production was analyzed using the IFNγ ELISA kit (eBiosciences).

[4] = target and assay not given; cited from earlier work

CO[C@H]1[C@@H](O)[C@H](C)C[C@H](C)/C=C/C=C/C=C(\C)[C@@H](c2c[nH]c3c(C)cccc23)C[C@@H]2CC[C@@H](C)[C@@](O)(O2)C(=O)C(=O)N2CCCC[C@H]2C(=O)O[C@H]([C@H](C)C[C@@H]2CC[C@@H](O)[C@H](OC)C2)C[C@H](O)[C@H](C)/C=C(\C)[C@H]1O [AP21967, C-16-(S)-7-methylindolerapamycin]
effect of AP21967 on cytotoxicity (K562-BCMA positive cells [1]): no effect on cytotoxicity
requirement of AP21967 for CD19 specific cytotoxicity [2]: not required
effect of AP21967 in the IFNγ release co-culture (K562-BCMA positive cells [3]): did not substantially affect cytotoxicity
IC50 [4]: 10 nM
